In US8263754B2, “Amphiphiles for protein solubilization and stabilization” (Wisconsin Alumni Research Foundation, priority 2008, dated 2012):

assay: Critical micelle concentration (CMC) by dye solubilization (Orange OT or DPH); type: physicochemical; settings: determined by DPH (diphenylhexatriene) or Orange OT
Text: Aqueous solubilization of Orange OT was used to determine critical micelle concentrations (CMC). […] Facile self-association of these amphiphiles under these conditions may be hindered by the hydrophilicity and/or steric bulk of the triglucoside and dimaltoside headgroups.
The Critical Micelle Concentrations (CMCs) of compounds of the invention can be determined by standard techniques known to those of skill in the art. For example, CMCs of the carbohydrate-based amphiphiles described herein can be determined by monitoring uptake of a dye (e.g., Orange OT or 1,6-diphenylhexatriene) with increasing detergent concentration, monitored by UV-visible or fluorescence spectroscopy.

SMILES	CMC	CMC (%)
CCCCCC(CCCCC)(CC(=O)NC(CO[C@@H]1O[C@H](CO)[C@@H](O)[C@H](O)[C@H]1O)CO[C@@H]1O[C@H](CO)[C@@H](O)[C@H](O)[C@H]1O)c1ccccc1 [TPA 35]	1.2 mM	0.083%
CCCC[C@]1(CC(=O)NC(CO[C@H]2OC(CO)[C@H](O)C(O)[C@H]2O)CO[C@H]2OC(CO)[C@H](O)C(O)[C@H]2O)C2C[C@@H]3C[C@H](C2)C[C@@H]1C3 (some centres unmarked) [TPA 45]	6.4 mM	0.41%
CCCCC(CCCC)(CC(=O)NC(COC1OC(CO)C(O)C(O)C1O)COC1OC(CO)C(O)C(O)C1O)C1CCCC1 (centres unmarked) [TPA 57]	2.25 mM	0.15%
CCCCCCCCCCCCCCC(=O)NC(CO[C@@H]1O[C@H](CO)[C@@H](O)[C@H](O)[C@H]1O)CO[C@@H]1O[C@H](CO)[C@@H](O)[C@H](O)[C@H]1O [C14-MPA2]	0.17 mM	0.011%
CCCCC(CCCC)(CC(=O)NC(CO[C@@H]1O[C@H](CO)[C@@H](O)[C@H](O)[C@H]1O)(CO[C@@H]1O[C@H](CO)[C@@H](O)[C@H](O)[C@H]1O)CO[C@@H]1O[C@H](CO)[C@@H](O)[C@H](O)[C@H]1O)C1CCCCC1 [TPA22]	3.7 mM	0.32%
CCCCCCCCC(=O)NC(CO[C@@H]1O[C@H](CO)[C@@H](O)[C@H](O)[C@H]1O)CO[C@@H]1O[C@H](CO)[C@@H](O)[C@H](O)[C@H]1O [C8-MPA2]	77 mM	4.3%
CC(CC(=O)NC(CO[C@@H]1O[C@H](CO)[C@@H](O)[C@H](O)[C@H]1O)CO[C@@H]1O[C@H](CO)[C@@H](O)[C@H](O)[C@H]1O)(C1CCCCC1)C1CCCCC1 [TPA 47]	4.7 mM	0.3%
CCCC[C@]1(CC(=O)NCCO[C@H]2OC(CO)[C@H](O[C@@H]3OC(CO)[C@H](O)C(O)[C@H]3O)C(O)[C@H]2O)C2C[C@@H]3C[C@H](C2)C[C@@H]1C3 (some centres unmarked) [TPA 46]	2.6 mM	0.16%
CCCCC(CCCC)(CC(=O)NC(CO[C@@H]1O[C@H](CO)[C@@H](O[C@H]2O[C@H](CO)[C@@H](O)[C@H](O)[C@H]2O)[C@H](O)[C@H]1O)CO[C@@H]1O[C@H](CO)[C@@H](O[C@H]2O[C@H](CO)[C@@H](O)[C@H](O)[C@H]2O)[C@H](O)[C@H]1O)c1ccc(C(C)(C)C)cc1 [TPA16]	3.3 mM	0.34%
O=C(NCCO[C@H]1OC(CO)[C@H](O)C(O)[C@H]1O)C12CC3CC(CC(C3)C1)C2 (some centres unmarked) [TPA 41]	180 mM	6.9%
CCCCC(CCCC)(CC(=O)NC(CO[C@@H]1O[C@H](CO)[C@@H](O)[C@H](O)[C@H]1O)(CO[C@@H]1O[C@H](CO)[C@@H](O)[C@H](O)[C@H]1O)CO[C@@H]1O[C@H](CO)[C@@H](O)[C@H](O)[C@H]1O)c1ccc(C(C)(C)C)cc1 [TPA14]	3.4 mM	0.31%
CCCCCCCCCCC(=O)NC(CO[C@@H]1O[C@H](CO)[C@@H](O)[C@H](O)[C@H]1O)CO[C@@H]1O[C@H](CO)[C@@H](O)[C@H](O)[C@H]1O [C10-MPA 2]	8.1 mM	0.47%
CCCCC(CC(=O)NC(CO[C@@H]1O[C@H](CO)[C@@H](O)[C@H](O)[C@H]1O)CO[C@@H]1O[C@H](CO)[C@@H](O)[C@H](O)[C@H]1O)(C1CCCCC1)C1CCCCC1 [TPA 49]	0.64 mM	0.04%
CC(C)(C)CC(C)(C)c1ccc(OCC(=O)NC(COC2OC(CO)C(O)C(O)C2O)COC2OC(CO)C(O)C(O)C2O)cc1 (centres unmarked) [CGT2]	2.6 mM	0.17%
CCCCC(CCCC)(CC(=O)NC(CO[C@@H]1O[C@H](CO)[C@@H](O)[C@H](O)[C@H]1O)CO[C@@H]1O[C@H](CO)[C@@H](O)[C@H](O)[C@H]1O)c1ccc(C(C)C)cc1 [TPA 32]	1.3 mM	0.091%
CCCCC(CCCC)(CC(=O)NC(CO[C@@H]1O[C@H](CO)[C@@H](O)[C@H](O)[C@H]1O)CO[C@@H]1O[C@H](CO)[C@@H](O)[C@H](O)[C@H]1O)c1ccc(C(C)(C)C)cc1 [TPA 33]	0.42 mM	0.03%
